Measured values as given in publication PMC8032764 (Scientific Reports, 2021).

Legend:
Wistar rats = assay: Pentylenetetrazole (PTZ) test; assay type: in vivo, rat
Experimental: PTZ was prepared in 0.9% saline and was administered s.c. in a volume of 1 mL/kg. The positive control FG7142, a non-selective GABAA receptor NAM, was prepared in 0.3% Tween 80 v/v saline and was administered i.p. in a volume of 1 mL/kg. […] During this period the number of rats showing tonic convulsions was noted.
FG7142 was administered at 10 mg/kg 30 min prior to PTZ. The percent of rats in each dose group showing tonic convulsions was compared to the control group by the Pearson Chi-Square test.

Adrenergic β2 = system: T1, Adrenergic β2; assay: Cerep binding; design: species or system human; details: 10 μM; [3H](-)CGP 12177; hum. recomb. (CHO)
T1 construct: host or cells: CHO

## Cc1onc(-c2ccc(F)cc2)c1COc1ccc(C(=O)N2CCS(=O)(=O)CC2)cn1 [basmisanil]
Wistar rats; female rats, 30 mg/kg, 2 h prior to PTZ 70 mg/kg
  proconvulsant activity: did not exert proconvulsant activity
Wistar rats; female rats, 100 mg/kg, threshold dose of PTZ, p < 0.05
  rats exhibiting tonic convulsions: five out of eight
Wistar rats; female rats, 300 and 600 mg/kg, p < 0.05
  rats exhibiting tonic convulsions, compared with 100 mg/kg: identical effects
Wistar rats; male rats, single doses up to 100 mg/kg, 1 h prior to PTZ 55 mg/kg
  proconvulsant activity: did not exert proconvulsant activity
Adrenergic β2
  % Inhibition: 10%
